In ChEMBL document CHEMBL1201862, “PubChem BioAssay data set” (2004):
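Grown in 96-well plates, cells were treated for 48 hours with each compound at five concentrations. Insufficient inhibition: endpoint recorded as highest concentration tested. GI50: concentration for 50% inhibition of growth.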 Active and inactive are the calls of the source. No stated cut-off is given here; in the data, active = GI50 up to about 1.1 µM and inactive = higher.

Key:
Assay in all cases: NCI anticancer screen, dose series, 48 h
HOP-92 = test system: HOP-92
SK-MEL-5 = test system: SK-MEL-5
UACC-62 = test system: UACC-62
U-251 = test system: U-251
RXF 393 = test system: RXF 393
NCI-H226 = test system: NCI-H226
OVCAR-8 = test system: OVCAR-8
NCI/ADR-RES = test system: NCI/ADR-RES
CCRF-CEM = test system: CCRF-CEM
HL-60 = test system: HL-60
OVCAR-5 = test system: OVCAR-5
SNB-19 = test system: SNB-19
T47D = test system: T47D
SK-MEL-2 = test system: SK-MEL-2
HCT-15 = test system: HCT-15
UO-31 = test system: UO-31
SR = test system: SR
MDA-MB-231 = test system: MDA-MB-231
LOX IMVI = test system: LOX IMVI
Hs-578T = test system: Hs-578T

Row | Structure (SMILES) | GI50 (HOP-92) | GI50 (SK-MEL-5) | GI50 (UACC-62) | GI50 (U-251) | GI50 (RXF 393) | GI50 (NCI-H226) | GI50 (OVCAR-8) | GI50 (NCI/ADR-RES) | GI50 (CCRF-CEM) | GI50 (HL-60) | GI50 (OVCAR-5) | GI50 (SNB-19) | GI50 (T47D) | GI50 (SK-MEL-2) | GI50 (HCT-15) [µM] | GI50 (UO-31) | GI50 (SR) | GI50 (MDA-MB-231) | GI50 (LOX IMVI) | GI50 (Hs-578T)
1 | CC(C)c1ccc(/C=C2\CSCC3=C2N=C(S)NC3c2ccc(C(C)C)cc2)cc1 (centres undefined) | 68.5 µM (inactive) | 27.2 µM (inactive) | 88.3 µM (inactive) | 85.1 µM (inactive) | 30.9 µM (inactive) | > 100 µM (inactive) | > 100 µM (inactive) | > 100 µM (inactive) | 35.8 µM (inactive) | 59.2 µM (inactive) | > 100 µM (inactive) | > 100 µM (inactive) | 80.4 µM (inactive) | > 100 µM (inactive) | 89.5 | 70.6 µM (inactive) | 53.3 µM (inactive) | > 100 µM (inactive) | 51.6 µM (inactive) | 
2 | C/C(CC(O)(/C=N/O)c1ccccc1)=N/O (centres undefined) |  | > 100 µM (inactive) |  | > 100 µM (inactive) |  | > 100 µM (inactive) | > 100 µM (inactive) | 99.8 µM (inactive) | > 100 µM (inactive) |  | > 100 µM (inactive) | > 100 µM (inactive) | > 100 µM (inactive) | > 100 µM (inactive) | > 100 | > 100 µM (inactive) | > 100 µM (inactive) | > 100 µM (inactive) | > 100 µM (inactive) | > 100 µM (inactive)
3 | COc1ccc2c(c1)CC[C@@H]1C2CC[C@]2(C)C(=O)N(C)C(=O)CC12 (some centres undefined) | > 100 µM (inactive) | > 100 µM (inactive) | > 100 µM (inactive) | 75.9 µM (inactive) | 38.1 µM (inactive) | > 100 µM (inactive) | > 100 µM (inactive) |  | > 100 µM (inactive) | 15.7 µM (inactive) | > 100 µM (inactive) | > 100 µM (inactive) | > 100 µM (inactive) |  |  | > 100 µM (inactive) | 13.9 µM (inactive) | > 100 µM (inactive) |  | 42 µM (inactive)
4 | Nc1ccc2c(c1)C(=O)c1c(F)cccc1-2 | 15.5 µM (inactive) | 25.5 µM (inactive) | 32 µM (inactive) | 53.1 µM (inactive) | 42.2 µM (inactive) | 27.7 µM (inactive) | 43.1 µM (inactive) | 35.6 µM (inactive) | 15 µM (inactive) |  |  | 53.1 µM (inactive) | 63.8 µM (inactive) | 81.7 µM (inactive) | 39.3 | 20.8 µM (inactive) |  | 45.6 µM (inactive) | 41.6 µM (inactive) | 27.9 µM (inactive)
5 | O=C1NC(=S)NC(=O)C1C(c1ccc(O)cc1)C1C(=O)NC(=S)NC1=O.c1ccncc1 | > 100 µM (inactive) | > 100 µM (inactive) | > 100 µM (inactive) | > 100 µM (inactive) | > 100 µM (inactive) | > 100 µM (inactive) | > 100 µM (inactive) | > 100 µM (inactive) | > 100 µM (inactive) | > 100 µM (inactive) | > 100 µM (inactive) | > 100 µM (inactive) | > 100 µM (inactive) | > 100 µM (inactive) | > 100 | > 100 µM (inactive) |  | > 100 µM (inactive) | > 100 µM (inactive) | 
6 | O=C1C(O)=C(Cl)C(=O)c2c(O)ccc(O)c21 | > 100 µM (inactive) | > 100 µM (inactive) | > 100 µM (inactive) | > 100 µM (inactive) | > 100 µM (inactive) |  | > 100 µM (inactive) | > 100 µM (inactive) | > 100 µM (inactive) | > 100 µM (inactive) | > 100 µM (inactive) | > 100 µM (inactive) | > 100 µM (inactive) |  | > 100 | > 100 µM (inactive) | > 100 µM (inactive) | > 100 µM (inactive) |  | 
7 | CC(=O)O[C@H]1CC(C)(C)C(=C=C/C(C)=C/C=C/C=C/C=C(C)/C=C2C=C(/C=C/[C@@]34O[C@]3(C)C[C@@H](O)CC4(C)C)C(=O)O/2)[C@](C)(O)C1 | 12.6 µM (inactive) | 8.43 µM (inactive) | 7.93 µM (inactive) | 10.7 µM (inactive) | 4.01 µM (inactive) | 1.62 µM (inactive) | 3.76 µM (inactive) | 5.93 µM (inactive) | 2.94 µM (inactive) | 1.78 µM (inactive) | 19.1 µM (inactive) | 30.6 µM (inactive) | 4.27 µM (inactive) | 3.31 µM (inactive) | 11 | 15.8 µM (inactive) | 6.76 µM (inactive) | 31.1 µM (inactive) |  | 
8 | COc1cc(/C=C2\CCc3cc(OC)c(OC)cc3C2=O)cc(OC)c1 | 24.3 µM (inactive) | 3.87 µM (inactive) | 3.75 µM (inactive) | 6.28 µM (inactive) | 4.9 µM (inactive) | 5.04 µM (inactive) | 9.02 µM (inactive) | 3.15 µM (inactive) | 4.08 µM (inactive) | 3.51 µM (inactive) | 24.2 µM (inactive) | > 28.6 µM (inactive) | 5.9 µM (inactive) | 5.96 µM (inactive) | 3.62 | 20.5 µM (inactive) |  | 12.9 µM (inactive) | 6.3 µM (inactive) | 23.9 µM (inactive)
